# Assay results taken from ChEMBL document CHEMBL1201862, “PubChem BioAssay data set” (2004).
#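 Step 1: Grow cells in 96-well plates. Step 2: Expose to compound for 48 hours at 5 concentrations. Step 3: Interpolate endpoints linearly; if unreached, use highest concentration. The concentration for 50% growth inhibition is given as GI50.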 The source made the active and inactive calls. Cut-off read from the data, not from the text of the source: active = GI50 up to about 1.1 µM and inactive = higher.
# What was measured:
# Assay in all cases: DTP human tumour cell line panel, 48 h
# [1] = system: SF-295
# [2] = system: ACHN
# [3] = system: COLO 205
# [4] = system: DMS-273
# [5] = system: SW-620
# [6] = system: TK-10
# [7] = system: MOLT-4
# [8] = system: SNB-78
# [9] = system: SN12C
# [10] = system: OVCAR-3
# [11] = system: CCRF-CEM
# [12] = system: Malme-3M
# [13] = system: SK-MEL-2
# [14] = system: OVCAR-8
# [15] = system: RXF 393
# [16] = system: SF-268
# [17] = system: KM-20L2
# [18] = system: UO-31
# [19] = system: NCI-H460
# [20] = system: M19-MEL
# [21] = system: SNB-19
# [22] = system: A498
# [23] = system: SK-MEL-28
# [24] = system: SR
# [25] = system: M14
# [26] = system: HOP-62
# [27] = system: LXFL 529
# [28] = system: HL-60
# [29] = system: SK-MEL-5
# [30] = system: IGROV-1
# [31] = system: RXF 631
# [32] = system: HCC 2998
# [33] = system: SNB-75
# [34] = system: UACC-257
# [35] = system: OVCAR-4
# [36] = system: SK-OV-3
# [37] = system: K562
# [38] = system: HT-29
# [39] = system: LOX IMVI
# [40] = system: A549
# [41] = system: HCT-15
# [42] = system: KM12
# [43] = system: NCI-H522
# [44] = system: UACC-62
# [45] = system: EKVX
# [46] = system: OVCAR-5
# [47] = system: SF-539
# [48] = system: RPMI-8226
# [49] = system: HOP-92
# [50] = system: DMS-114
# [51] = system: HCT-116
# [52] = system: DLD-1
# [53] = system: XF498
# [54] = system: NCI-H23
# [55] = system: U-251
# [56] = system: 786-0
smiles,measurement,setting,value
O=C(O)c1oc2cccc3c2c1CCC3,GI50,[1],> 100 µM (inactive)
same,GI50,[2],> 100 µM (inactive)
same,GI50,[3],> 100 µM (inactive)
same,GI50,[4],> 100 µM (inactive)
same,GI50,[5],> 100 µM (inactive)
same,GI50,[6],> 100 µM (inactive)
same,GI50,[7],> 100 µM (inactive)
same,GI50,[8],> 100 µM (inactive)
same,GI50,[9],> 100 µM (inactive)
same,GI50,[10],> 100 µM (inactive)
same,GI50,[11],> 100 µM (inactive)
same,GI50,[12],> 100 µM (inactive)
same,GI50,[13],> 100 µM (inactive)
same,GI50,[14],> 100 µM (inactive)
same,GI50,[15],> 100 µM (inactive)
same,GI50,[16],> 100 µM (inactive)
same,GI50,[17],> 10 µM (inactive)
same,GI50,[18],12.8 µM (inactive)
same,GI50,[19],> 100 µM (inactive)
same,GI50,[20],> 100 µM (inactive)
same,GI50,[21],> 100 µM (inactive)
same,GI50,[22],> 100 µM (inactive)
same,GI50,[23],> 100 µM (inactive)
same,GI50,[24],> 100 µM (inactive)
same,GI50,[25],> 100 µM (inactive)
same,GI50,[26],> 100 µM (inactive)
same,GI50,[27],> 100 µM (inactive)
same,GI50,[28],> 100 µM (inactive)
same,GI50,[29],> 100 µM (inactive)
same,GI50,[30],> 100 µM (inactive)
same,GI50,[31],> 100 µM (inactive)
same,GI50,[32],> 100 µM (inactive)
same,GI50,[33],99.3 µM (inactive)
same,GI50,[34],> 100 µM (inactive)
same,GI50,[35],> 100 µM (inactive)
same,GI50,[36],> 100 µM (inactive)
same,GI50,[37],> 100 µM (inactive)
same,GI50,[38],> 100 µM (inactive)
same,GI50,[39],> 100 µM (inactive)
same,GI50,[40],> 100 µM (inactive)
same,GI50,[41],> 100 µM
same,GI50,[42],> 100 µM (inactive)
same,GI50,[43],> 100 µM (inactive)
same,GI50,[44],41.7 µM (inactive)
same,GI50,[45],> 100 µM (inactive)
same,GI50,[46],> 100 µM (inactive)
same,GI50,[47],> 100 µM (inactive)
same,GI50,[48],> 100 µM (inactive)
same,GI50,[49],> 100 µM (inactive)
same,GI50,[50],> 100 µM (inactive)
same,GI50,[51],> 100 µM (inactive)
same,GI50,[52],> 100 µM (inactive)
same,GI50,[53],> 100 µM (inactive)
same,GI50,[54],> 100 µM (inactive)
same,GI50,[55],> 100 µM (inactive)
same,GI50,[56],> 100 µM (inactive)
